We go through 3 substances from patent US20240197820A1, “Bacteriocin for new application” (priority 2021, published 2024).

“Also recorded” adds a separate entry of the source. No end group written: not given here.

Test [1] has as its system S. aureus ATCC 6538. Kind of test: Antimicrobial activity test on inoculated M17 agar plates (inhibition halo). It counts as cell-based, Staphylococcus aureus. To be noted: 1 mg/ml, overnight incubation. The method, then: (§1) Bacterial strains were grown overnight in liquid culture on rotary shakers or on agar plates using M17 media supplemented with 0.5% glucose. S. aureus ATCC 6538 and S. epidermidis ATCC 12228 liquid cultures and agar plates were grown anaerobically at 37° C. Culture volume utilized in MIC assays was 200 μl.
(§2) Antimicrobial activity of bacteriocin peptides was tested on M17 agar plates in Examples 1 and 3.
(§3) In Example 1, 2 μl of cerein 7B peptide (SEQ ID NO: 2) aqueous solutions at a concentration of 1 mg/ml were deposited on inoculated M17 agar plates of S. aureus ATCC 6538 and S. epidermidis ATCC 12228. In the case of S. epidermidis ATCC 12228, an equivalent amount of aureocin A53 aqueous solution (1 mg/ml concentration) was used as positive control.
In Example 3, 5 μl of bacteriocin peptides (SEQ ID NO: 2, 4-51) aqueous solutions at a concentration of 1 mg/ml were deposited on inoculated M17 agar plates of S. aureus ATCC 6538. After overnight incubation, the presence of an inhibition halo was considered as a positive result of antimicrobial activity.

Test [2] has as its system S. epidermidis ATCC 12228. The description is as above. As to conditions: 2 μl of aqueous solution, 1 mg/ml, overnight incubation. It counts as cell-based, Staphylococcus epidermidis. The procedure:
as §1, §2, §3

Test [3] concerns S. aureus ATCC 6538. Kind of test: MIC assay in liquid culture (endpoint OD600). As to conditions: liquid culture 200 μl, M17 + 0.5% glucose, 37° C., overnight, 2-fold dilutions from 250 μg/ml. It counts as cell-based, Staphylococcus aureus. The method, then: as §1
(§4) Determination of MIC values of a cerein 7B peptide (SEQ ID NO: 2) was performed in liquid cultures of S. aureus ATCC 6538 and S. epidermidis ATCC 12228. Growth was assessed by measuring endpoint OD600 values in a Spectramax i3 (Molecular Devices, CA, USA). Minimum inhibitory concentration (MIC) was defined as the lowest concentration which inhibited 50% of the growth of cultures as compared to reference cultures not exposed to the peptide. Concentration of the peptide was 250 μg/ml in well 11, diluted 2-fold per subsequent well as shown in Table 3 (concentrations rounded to the second decimal): […]

The test system of test [4] is S. epidermidis ATCC 12228. In words: MIC assay in liquid culture (endpoint OD600). As to conditions: tested concentrations 0.24 to 250 μg/ml. It counts as cell-based, Staphylococcus epidermidis. The procedure: as §1, §4
Test [5] relates to Lactococcus lactis LMG IL 1403. To be noted: cited from earlier work.

For “GWWNSWGKCVAGTIGGAGTGGLGGAAAGSAVPVIGTGIGGAIGGVSGGLTGAATFC (cysteines drawn unpaired) [cerein 7B]”, the “inhibition halo (antimicrobial activity on agar plate)” value in test [1] (2 μl of aqueous solution, chemically synthesized peptide) was “An inhibition halo was visible”; in test [2], “no inhibition halo was visible; also recorded: no inhibition halo was present”. Also, the “MIC (lowest concentration which inhibited 50% of the growth of cultures)” value in test [3] came to 15.63 µg/mL. The “growth inhibition in MIC assay” value in test [4] is given as “No growth inhibition was observed”. For the same substance, the “activity against Lactococcus lactis LMG IL 1403” value in test [5] was “demonstrated its activity”.

For “GWWNSWGKCVAGTIGGAGTGGLGGAAAGSAVPVIGTGIGGAIGGVSGGLTGAATFCW (mutant 48 (E2)) [SEQ ID NO: 51]”, the “antimicrobial activity of mutants (inhibition halo)” value in test [1] (5 μl of aqueous solution, M17 agar plate, peptides synthesized in vitro (PURExpress)) was “did not compromise its antimicrobial activity”.

aureocin A53 [reference compound]: the “inhibition halo (antimicrobial activity on agar plate)” value in test [2] is “an inhibition halo was present”.
